Test system: MCF-7 breast cancer cells
Test: Microarray gene expression analysis (Agilent whole human genome 4 x 44K; compound vs DMSO, LIMMA log2 fold change)
Format: cell-based
Settings: cell cycle genes

SMILES: Cn1ncc2c(N3CCOCC3)nc(-c3cccc(O)c3)nc21 [ETP-45658]
- MLF1 log2FC (Gene 4291): 0.627
- MLH1 log2FC (Gene 4292): 0.538
- MAP3K11 log2FC (Gene 4296): -0.949
- MNAT1 log2FC (Gene 4331): 0.729
- MNT log2FC (Gene 4335): 1.624
- MOS log2FC (Gene 4342): -0.164
- MRE11A log2FC (Gene 4361): 0.332
- MSH2 log2FC (Gene 4436): 0.939
- MSH3 log2FC (Gene 4437): 0.739
- MSH4 log2FC (Gene 4438): -0.048
- MSX1 log2FC (Gene 4487): -0.324
- MSX2 log2FC (Gene 4488): 0.054
- MUC1 log2FC (Gene 4582): -0.901
- TRIM37 log2FC (Gene 4591): 0.868
- MX2 log2FC (Gene 4600): -0.054
- MYB log2FC (Gene 4602): 0.452
- MYBL2 log2FC (Gene 4605): -0.545
- MYC log2FC (Gene 4609): 0.554
- GADD45B log2FC (Gene 4616): 0.642
- MYH9 log2FC (Gene 4627): -0.364
- MYH10 log2FC (Gene 4628): -0.039
- PPP1R12A log2FC (Gene 4659): 0.489
- PPP1R12B log2FC (Gene 4660): 0.389
- NUBP1 log2FC (Gene 4682): -0.227
- NBN log2FC (Gene 4683): 0.839
- NEDD9 log2FC (Gene 4739): -0.017
- NEK1 log2FC (Gene 4750): 0.621
- NEK2 log2FC (Gene 4751): 0.969
- NEUROD1 log2FC (Gene 4760): -0.043
- NGFR log2FC (Gene 4804): -0.063
- NOTCH2 log2FC (Gene 4853): 0.166
- NPAT log2FC (Gene 4863): 0.585
- NPM1 log2FC (Gene 4869): 0.586
- NUP88 log2FC (Gene 4927): 0.539
- ODF2 log2FC (Gene 4957): -0.215
- OSM log2FC (Gene 5008): 0.056
- OVOL1 log2FC (Gene 5017): -0.043
- PAFAH1B1 log2FC (Gene 5048): 0.720
- PAK1 log2FC (Gene 5058): 0.117
- PAK3 log2FC (Gene 5063): 0.230
- PCM1 log2FC (Gene 5108): 0.687
- PCNT log2FC (Gene 5116): 0.317
- PDGFB log2FC (Gene 5155): -0.598
- PDGFRB log2FC (Gene 5159): 0.022
- PGGT1B log2FC (Gene 5229): -0.232
- ABCB1 log2FC (Gene 5243): -0.025
- PIK3C3 log2FC (Gene 5289): 1.044
- PIM1 log2FC (Gene 5292): 1.131
- PIN1 log2FC (Gene 5300): -0.195
- PKD1 log2FC (Gene 5310): 0.265
- PKD2 log2FC (Gene 5311): 0.346
- PKHD1 log2FC (Gene 5314): -0.057
- PLAGL1 log2FC (Gene 5325): 0.310
- PML log2FC (Gene 5371): -0.804
- PMS1 log2FC (Gene 5378): 0.682
- PMS2 log2FC (Gene 5395): 0.442
- POLD1 log2FC (Gene 5424): 0.148
- POLE log2FC (Gene 5426): -0.223
- PPAT log2FC (Gene 5471): 0.243
- PPM1A log2FC (Gene 5494): 0.474
- PPP1CB log2FC (Gene 5500): 1.012
- PPP1CC log2FC (Gene 5501): 0.572
- PPP2R1A log2FC (Gene 5518): -0.055
- PPP2R2A log2FC (Gene 5520): 0.059
- PPP2R4 log2FC (Gene 5524): -0.446
- PPP2R5C log2FC (Gene 5527): 0.888
- PPP3CA log2FC (Gene 5530): 0.422
- PPP5C log2FC (Gene 5536): -0.138
- PPP6C log2FC (Gene 5537): -0.352
- PRCC log2FC (Gene 5546): -0.798
- PRIM1 log2FC (Gene 5557): 0.636
- PRKAA1 log2FC (Gene 5562): 0.429
- PRKAA2 log2FC (Gene 5563): 0.082
- PRKAB1 log2FC (Gene 5564): 0.427
- PRKAB2 log2FC (Gene 5565): 1.177
- PRKACA log2FC (Gene 5566): -0.596
- PKIA log2FC (Gene 5569): -0.378
- PRKAG1 log2FC (Gene 5571): 0.238
- PRKAR1A log2FC (Gene 5573): 0.532
- PRKAR2B log2FC (Gene 5577): 0.565
- PRKCA log2FC (Gene 5578): -0.217
- PRKCD log2FC (Gene 5580): -0.079
- PRKCE log2FC (Gene 5581): -0.042
- PKN2 log2FC (Gene 5586): 0.510
- MAPK1 log2FC (Gene 5594): -0.045
- MAPK3 log2FC (Gene 5595): -0.190
- MAPK13 log2FC (Gene 5603): -0.354
- MAP2K1 log2FC (Gene 5604): -0.107
- MAP2K6 log2FC (Gene 5608): 0.116
- PROX1 log2FC (Gene 5629): 0.206
- KLK10 log2FC (Gene 5655): -0.446
- PSMA1 log2FC (Gene 5682): 0.045
- PSMA4 log2FC (Gene 5685): 0.609
- PSMA6 log2FC (Gene 5687): 0.200
- PSMB1 log2FC (Gene 5689): 0.085
- PSMB2 log2FC (Gene 5690): -0.547
- PSMB3 log2FC (Gene 5691): -0.030
- PSMB5 log2FC (Gene 5693): -0.298
- PSMB6 log2FC (Gene 5694): -0.120
- PSMB8 log2FC (Gene 5696): -0.045
- PSMC1 log2FC (Gene 5700): 0.172
- PSMC2 log2FC (Gene 5701): 0.576
- PSMC5 log2FC (Gene 5705): -0.327
- PSMC6 log2FC (Gene 5706): 0.776
- PSMD2 log2FC (Gene 5708): 0.090
- PSMD3 log2FC (Gene 5709): -0.109
- PSMD4 log2FC (Gene 5710): -0.086
- PSMD5 log2FC (Gene 5711): 0.388
- PSMD7 log2FC (Gene 5713): 0.182
- PSMD9 log2FC (Gene 5715): -0.171
- PSMD12 log2FC (Gene 5718): -0.582
- PSMD13 log2FC (Gene 5719): -0.031
- PSME2 log2FC (Gene 5721): 0.039
- PTEN log2FC (Gene 5728): 1.014
- PTGS2 log2FC (Gene 5743): -0.151
- PTPN3 log2FC (Gene 5774): -0.174
- PTPN6 log2FC (Gene 5777): 0.120
- PTPRC log2FC (Gene 5788): -0.053
- PTPRK log2FC (Gene 5796): 0.583
- RAD1 log2FC (Gene 5810): -0.104
- RAD9A log2FC (Gene 5883): 0.686
- RAD17 log2FC (Gene 5884): 1.203
- RAD21 log2FC (Gene 5885): 1.043
- RAD51 log2FC (Gene 5888): -0.360
- RAD52 log2FC (Gene 5893): 0.105
- RAN log2FC (Gene 5901): 0.119
- RANBP1 log2FC (Gene 5902): -0.137
- RANBP2 log2FC (Gene 5903): 0.605
- RARA log2FC (Gene 5914): -0.580
- RASA1 log2FC (Gene 5921): 0.488
- RB1 log2FC (Gene 5925): 0.746
- RBL2 log2FC (Gene 5934): 0.480
- RFC1 log2FC (Gene 5981): 1.105
- RFC2 log2FC (Gene 5982): 0.117
- RFC5 log2FC (Gene 5985): 0.243
- RGS2 log2FC (Gene 5997): -2.314
- RHEB log2FC (Gene 6009): 0.421
- RNF2 log2FC (Gene 6045): -0.048
- RNF4 log2FC (Gene 6047): -0.426
- RPA3 log2FC (Gene 6119): 0.162
- RPS6KA2 log2FC (Gene 6196): 0.035
- RPS6KA3 log2FC (Gene 6197): 0.412
- RPS15A log2FC (Gene 6210): 0.277
- RPS27 log2FC (Gene 6232): 0.416
- RPS27A log2FC (Gene 6233): 0.401
- RRM1 log2FC (Gene 6240): 0.612
- RRM2 log2FC (Gene 6241): -0.808
- SETMAR log2FC (Gene 6419): -0.171
- SIAH2 log2FC (Gene 6478): -0.579
- SKP2 log2FC (Gene 6502): -1.072
- SMARCA4 log2FC (Gene 6597): -0.352
- SOX2 log2FC (Gene 6657): 0.298
- SOX9 log2FC (Gene 6662): -2.381
- SPAST log2FC (Gene 6683): 0.519
- SPTBN1 log2FC (Gene 6711): 0.111
- SRPK2 log2FC (Gene 6733): 0.850
- TRIM21 log2FC (Gene 6737): -0.066
